Assay results reported in ChEMBL document CHEMBL3045446, “In vitro antimicrobial and antimycobacterial activity of some chalcones and their derivatives” (2013).
In brackets after ≈: the same amount, converted by molar mass.

Experiments:
Format in all cases: functional
[1] = system: Klebsiella pneumoniae; test: Antimicrobial activity against Klebsiella pneumoniae MTCC 109 assessed as diameter of growth inhibition zone after 24 hr
[2] = system: Staphylococcus aureus; test: Antimicrobial activity against Staphylococcus aureus MTCC 96 assessed as diameter of growth inhibition zone after 24 hr
[3] = system: Candida albicans; test: Antimicrobial activity against Candida albicans MTCC 183 assessed as growth inhibition after 48 hr by agar streak dilution method; details: MTCC 183, 48 h
[4] = system: Aspergillus fumigatus; test: Antimicrobial activity against Aspergillus fumigatus MTCC 343 assessed as diameter of growth inhibition zone after 48 hr
[5] = system: Aspergillus clavatus; test: Antimicrobial activity against Aspergillus clavatus MTCC 1323 assessed as diameter of growth inhibition zone after 48 hr
[6] = system: Mycobacterium tuberculosis; test: Antituberculosis activity against Mycobacterium tuberculosis H37Rv assessed as growth inhibition after 12 to 28 days by L-J MIC method; details: for MIC: Mycobacterium tuberculosis, H37Rv
[7] = system: Aspergillus clavatus; test: Antimicrobial activity against Aspergillus clavatus MTCC 1323 assessed as growth inhibition after 48 hr by agar streak dilution method; details: MTCC 1323, 48 h
[8] = system: Bacillus cereus; test: Antimicrobial activity against Bacillus cereus MTCC 430 assessed as growth inhibition after 24 hr by agar streak dilution method; details: MTCC 430, 24 h
[9] = system: Shigella flexneri; test: Antimicrobial activity against Shigella flexneri MTCC1457 assessed as diameter of growth inhibition zone after 24 hr
[10] = system: Proteus vulgaris; test: Antimicrobial activity against Proteus vulgaris MTCC 1771 assessed as diameter of growth inhibition zone after 24 hr
[11] = system: Aspergillus fumigatus; test: Antimicrobial activity against Aspergillus fumigatus MTCC 343 assessed as growth inhibition after 48 hr by agar streak dilution method; details: MTCC 343, 48 h
[12] = system: Salmonella typhi; test: Antimicrobial activity against Salmonella enterica subsp. enterica serovar Typhi MTCC 733 assessed as growth inhibition after 24 hr by agar streak dilution method; details: MTCC 733, 24 h
[13] = system: Candida albicans; test: Antimicrobial activity against Candida albicans MTCC 183 assessed as diameter of growth inhibition zone after 48 hr
[14] = system: Proteus vulgaris; test: Antimicrobial activity against Proteus vulgaris MTCC 1771 assessed as growth inhibition after 24 hr by agar streak dilution method; details: MTCC 1771, 24 h
[15] = system: Pseudomonas aeruginosa; test: Antimicrobial activity against Pseudomonas aeruginosa MTCC 741 assessed as diameter of growth inhibition zone after 24 hr
[16] = system: Escherichia coli; test: Antimicrobial activity against Escherichia coli MTCC 739 assessed as diameter of growth inhibition zone after 24 hr
[17] = system: Escherichia coli; test: Antimicrobial activity against Escherichia coli MTCC 739 assessed as growth inhibition after 24 hr by agar streak dilution method; details: MTCC 739, 24 h
[18] = system: Klebsiella pneumoniae; test: Antimicrobial activity against Klebsiella pneumoniae MTCC 109 assessed as growth inhibition after 24 hr by agar streak dilution method; details: MTCC 109, 24 h
[19] = system: Shigella flexneri; test: Antimicrobial activity against Shigella flexneri MTCC1457 assessed as growth inhibition after 24 hr by agar streak dilution method; details: MTCC1457, 24 h
[20] = system: Bacillus cereus; test: Antimicrobial activity against Bacillus cereus MTCC 430 assessed as diameter of growth inhibition zone after 24 hr
[21] = system: Staphylococcus aureus; test: Antimicrobial activity against Staphylococcus aureus MTCC 96 assessed as growth inhibition after 24 hr by agar streak dilution method; details: MTCC 96, 24 h
[22] = system: Aspergillus niger; test: Antimicrobial activity against Aspergillus niger MTCC 282 assessed as diameter of growth inhibition zone after 48 hr
[23] = system: Pseudomonas aeruginosa; test: Antimicrobial activity against Pseudomonas aeruginosa MTCC 741 assessed as growth inhibition after 24 hr by agar streak dilution method; details: MTCC 741, 24 h
[24] = system: Aspergillus niger; test: Antimicrobial activity against Aspergillus niger MTCC 282 assessed as growth inhibition after 48 hr by agar streak dilution method; details: MTCC 282, 48 h
[25] = system: Salmonella typhi; test: Antimicrobial activity against Salmonella enterica subsp. enterica serovar Typhi MTCC 733 assessed as diameter of growth inhibition zone after 24 hr

Row | SMILES | diameter of the inhibition zone (DIZ) [1] | diameter of the inhibition zone (DIZ) [2] | MIC [3] | diameter of the inhibition zone (DIZ) [4] | diameter of the inhibition zone (DIZ) [5] | growth inhibition (GI) [6] | MIC [6] | MIC [7] | MIC [8] | diameter of the inhibition zone (DIZ) [9] | diameter of the inhibition zone (DIZ) [10] | MIC [11] | MIC [12] | diameter of the inhibition zone (DIZ) [13] | MIC [14] | diameter of the inhibition zone (DIZ) [15] | diameter of the inhibition zone (DIZ) [16] | MIC [17] | MIC [18] | MIC [19] | further results
1 | Nc1nc(-c2ccc(Cl)cc2)cc(-c2ccc(Nc3cc(=O)oc4ccccc34)cc2)n1 | 22 mm | 20 mm | 12.5 µg/mL (≈ 28.4 µM) | 19 mm | 17 mm | 97% | 200 µg/mL (≈ 454 µM) | 50 µg/mL (≈ 113 µM) | 50 µg/mL (≈ 113 µM) | 21 mm | 23 mm | 25 µg/mL (≈ 56.7 µM) | 25 µg/mL (≈ 56.7 µM) | 21 mm | 12.5 µg/mL (≈ 28.4 µM) | 16 mm | 18 mm | 50 µg/mL (≈ 113 µM) | 12.5 µg/mL (≈ 28.4 µM) | 25 µg/mL (≈ 56.7 µM) | diameter of the inhibition zone (DIZ) [20]: 19 mm; MIC [21]: 50 µg/mL (≈ 113 µM); diameter of the inhibition zone (DIZ) [22]: 17 mm; MIC [23]: 100 µg/mL (≈ 227 µM); MIC [24]: 50 µg/mL (≈ 113 µM); diameter of the inhibition zone (DIZ) [25]: 20 mm
2 | O=C(/C=C/c1ccccc1Br)c1ccc(Nc2cc(=O)oc3ccccc23)cc1 | 14 mm | 13 mm | 50 µg/mL (≈ 112 µM) | 15 mm | 12 mm | 97% | 500 µg/mL (≈ 1120 µM) | 100 µg/mL (≈ 224 µM) | 100 µg/mL (≈ 224 µM) | 12 mm | <10 mm | 100 µg/mL (≈ 224 µM) | 100 µg/mL (≈ 224 µM) | 18 mm | 100 µg/mL (≈ 224 µM) | <10 mm | 11 mm | 100 µg/mL (≈ 224 µM) | 100 µg/mL (≈ 224 µM) | 100 µg/mL (≈ 224 µM) | diameter of the inhibition zone (DIZ) [20]: 11 mm; MIC [21]: 100 µg/mL (≈ 224 µM); diameter of the inhibition zone (DIZ) [22]: 12 mm; MIC [23]: 100 µg/mL (≈ 224 µM); MIC [24]: 100 µg/mL (≈ 224 µM); diameter of the inhibition zone (DIZ) [25]: 11 mm
3 | Nc1nc(-c2ccc(Nc3cc(=O)oc4ccccc34)cc2)cc(-c2ccccc2O)n1 | 21 mm | 18 mm | 50 µg/mL (≈ 118 µM) | 23 mm | 25 mm | 97% | 250 µg/mL (≈ 592 µM) | 6.25 µg/mL (≈ 14.8 µM) | 50 µg/mL (≈ 118 µM) | 20 mm | 19 mm | 12.5 µg/mL (≈ 29.6 µM) | 100 µg/mL (≈ 237 µM) | 18 mm | 50 µg/mL (≈ 118 µM) | 18 mm | 19 mm | 50 µg/mL (≈ 118 µM) | 12.5 µg/mL (≈ 29.6 µM) | 25 µg/mL (≈ 59.2 µM) | diameter of the inhibition zone (DIZ) [20]: 19 mm; MIC [21]: 50 µg/mL (≈ 118 µM); diameter of the inhibition zone (DIZ) [22]: 21 mm; MIC [23]: 50 µg/mL (≈ 118 µM); MIC [24]: 25 µg/mL (≈ 59.2 µM); diameter of the inhibition zone (DIZ) [25]: 17 mm
4 | COc1ccc(/C=C/C(=O)c2ccc(Nc3cc(=O)oc4ccccc34)cc2)cc1 | 16 mm | 15 mm | 100 µg/mL (≈ 252 µM) | 16 mm | 18 mm | 96% | 250 µg/mL (≈ 629 µM) | 50 µg/mL (≈ 126 µM) | 100 µg/mL (≈ 252 µM) | 15 mm | 18 mm | 100 µg/mL (≈ 252 µM) | 100 µg/mL (≈ 252 µM) | 16 mm | 50 µg/mL (≈ 126 µM) | 16 mm | 18 mm | 50 µg/mL (≈ 126 µM) | 100 µg/mL (≈ 252 µM) | 100 µg/mL (≈ 252 µM) | diameter of the inhibition zone (DIZ) [20]: 13 mm; MIC [21]: 100 µg/mL (≈ 252 µM); diameter of the inhibition zone (DIZ) [22]: 20 mm; MIC [23]: 100 µg/mL (≈ 252 µM); MIC [24]: 50 µg/mL (≈ 126 µM); diameter of the inhibition zone (DIZ) [25]: 14 mm
5 | COc1ccc(-c2cc(-c3ccc(Nc4cc(=O)oc5ccccc45)cc3)nc(N)c2C#N)cc1OC | 28 mm | 29 mm | 6.25 µg/mL (≈ 12.7 µM) | 28 mm | 25 mm | 99% | 12.5 µg/mL (≈ 25.5 µM) | 6.25 µg/mL (≈ 12.7 µM) | 6.25 µg/mL (≈ 12.7 µM) | 27 mm | 25 mm | 3.12 µg/mL (≈ 6.36 µM) | 3.12 µg/mL (≈ 6.36 µM) | 27 mm | 6.25 µg/mL (≈ 12.7 µM) | 25 mm | 26 mm | 6.25 µg/mL (≈ 12.7 µM) | 3.12 µg/mL (≈ 6.36 µM) | 6.25 µg/mL (≈ 12.7 µM) | diameter of the inhibition zone (DIZ) [20]: 26 mm; MIC [21]: 3.12 µg/mL (≈ 6.36 µM); diameter of the inhibition zone (DIZ) [22]: 27 mm; MIC [23]: 6.25 µg/mL (≈ 12.7 µM); MIC [24]: 6.25 µg/mL (≈ 12.7 µM); diameter of the inhibition zone (DIZ) [25]: 27 mm
6 | O=C(/C=C/c1ccc(Cl)cc1Cl)c1ccc(Nc2cc(=O)oc3ccccc23)cc1 | 16 mm | 20 mm | 100 µg/mL (≈ 229 µM) | 17 mm | 14 mm | 95% | 1000 µg/mL (≈ 2290 µM) | 100 µg/mL (≈ 229 µM) | 50 µg/mL (≈ 115 µM) | 13 mm | 19 mm | 50 µg/mL (≈ 115 µM) | 50 µg/mL (≈ 115 µM) | 12 mm | 50 µg/mL (≈ 115 µM) | <10 mm | 14 mm | 100 µg/mL (≈ 229 µM) | 100 µg/mL (≈ 229 µM) | 100 µg/mL (≈ 229 µM) | diameter of the inhibition zone (DIZ) [20]: 16 mm; MIC [21]: 25 µg/mL (≈ 57.3 µM); diameter of the inhibition zone (DIZ) [22]: 15 mm; MIC [23]: 100 µg/mL (≈ 229 µM); MIC [24]: 100 µg/mL (≈ 229 µM); diameter of the inhibition zone (DIZ) [25]: 17 mm
7 | Nc1nc(-c2ccc(Nc3cc(=O)oc4ccccc34)cc2)cc(-c2ccc(Cl)cc2Cl)n1 | 21 mm | 24 mm | 25 µg/mL (≈ 52.6 µM) | 22 mm | 19 mm | 98% | 200 µg/mL (≈ 421 µM) | 50 µg/mL (≈ 105 µM) | 12.5 µg/mL (≈ 26.3 µM) | 21 mm | 25 mm | 12.5 µg/mL (≈ 26.3 µM) | 25 µg/mL (≈ 52.6 µM) | 21 mm | 6.25 µg/mL (≈ 13.1 µM) | 22 mm | 19 mm | 50 µg/mL (≈ 105 µM) | 25 µg/mL (≈ 52.6 µM) | 25 µg/mL (≈ 52.6 µM) | diameter of the inhibition zone (DIZ) [20]: 22 mm; MIC [21]: 12.5 µg/mL (≈ 26.3 µM); diameter of the inhibition zone (DIZ) [22]: 20 mm; MIC [23]: 25 µg/mL (≈ 52.6 µM); MIC [24]: 25 µg/mL (≈ 52.6 µM); diameter of the inhibition zone (DIZ) [25]: 20 mm
8 | CC(=O)N1N=C(c2ccc(Nc3cc(=O)oc4ccccc34)cc2)CC1c1ccc(F)cc1 (stereo not drawn) | 23 mm | 23 mm | 50 µg/mL (≈ 113 µM) | 22 mm | 20 mm | 98% | 100 µg/mL (≈ 227 µM) | 50 µg/mL (≈ 113 µM) | 12.5 µg/mL (≈ 28.3 µM) | 20 mm | 21 mm | 25 µg/mL (≈ 56.6 µM) | 50 µg/mL (≈ 113 µM) | 16 mm | 25 µg/mL (≈ 56.6 µM) | 17 mm | 20 mm | 50 µg/mL (≈ 113 µM) | 12.5 µg/mL (≈ 28.3 µM) | 25 µg/mL (≈ 56.6 µM) | diameter of the inhibition zone (DIZ) [20]: 22 mm; MIC [21]: 12.5 µg/mL (≈ 28.3 µM); diameter of the inhibition zone (DIZ) [22]: 20 mm; MIC [23]: 50 µg/mL (≈ 113 µM); MIC [24]: 25 µg/mL (≈ 56.6 µM); diameter of the inhibition zone (DIZ) [25]: 18 mm
